The assay has as its target T1, TRAP1 enzyme (Homo sapiens, UniProt Q12931).
T1 construct: 150 nM Trap1 enzyme was incubated with various concentrations of the test compound
T1 sequence (Q12931 60-704): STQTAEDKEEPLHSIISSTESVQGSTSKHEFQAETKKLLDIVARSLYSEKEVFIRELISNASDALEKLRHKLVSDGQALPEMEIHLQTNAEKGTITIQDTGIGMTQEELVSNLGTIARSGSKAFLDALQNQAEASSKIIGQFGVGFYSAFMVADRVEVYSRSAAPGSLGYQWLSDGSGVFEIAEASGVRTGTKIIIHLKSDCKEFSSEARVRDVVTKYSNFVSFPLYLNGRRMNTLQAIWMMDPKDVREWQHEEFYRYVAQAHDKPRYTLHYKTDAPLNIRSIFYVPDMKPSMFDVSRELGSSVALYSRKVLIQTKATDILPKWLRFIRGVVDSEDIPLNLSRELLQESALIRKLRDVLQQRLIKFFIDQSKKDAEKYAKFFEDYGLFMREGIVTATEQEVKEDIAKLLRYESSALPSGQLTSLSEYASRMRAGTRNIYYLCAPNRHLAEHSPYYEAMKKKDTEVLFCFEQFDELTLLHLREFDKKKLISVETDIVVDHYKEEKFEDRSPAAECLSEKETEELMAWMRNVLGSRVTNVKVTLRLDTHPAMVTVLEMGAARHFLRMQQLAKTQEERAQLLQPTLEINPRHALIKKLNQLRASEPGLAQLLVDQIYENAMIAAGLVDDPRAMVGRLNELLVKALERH
As to the kind of experiment: ADP Glo assay of TRAP1 ATPase activity. Format: biochemical. To be noted: for EC50: concentration for half maximal activation, read-out: ADP GLO DRC: GeoMean EC50; for Emax: maximal percent activation, read-out: ADP GLO DRC: Mean Emax; for activation at 50 µM: 1 h, compound concentration 50 μM, read-out: ADP-Glo Percent Activation at 50 μM. The procedure, abridged:
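ADP-Glo luminescence quantifying ADP from 150 nM TRAP1 preincubated 30 min at 37° C with compound (0.79–100 μM), then 20 μM ATP for 60 min at 37° C. Buffer: 25 mM Pipes pH 7.5, 40 mM KCl, 0.05 mM MgCl2, EGTA, BSA, detergents. ADP from ATP/ADP standard curve; Emax and EC50 from sigmoidal fit.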
A general note: ADP-Glo turns the ADP formed in a reaction into a luminescent signal.

As a reminder, the EC50 is the concentration giving half of the maximal effect. One may read the Emax as the maximal effect, on the per cent scale that the assay sets.

On to `COc1ncc(NC(=O)c2coc(-c3ccccc3)n2)cc1S(=O)(=O)Nc1c(C2CC2)cccc1C1CC1` [compound 2497], for which the EC50 is below 10 µM and the Emax was 160 to 199%.

On to `COc1ncc(NC(=O)c2csc(C(F)(F)F)n2)cc1S(=O)(=O)Nc1c(C)cccc1C` [compound 2498], for which the EC50 was in the range of 10 to 20 µM and the Emax was 160 to 199%. On the same counts, the results for `COc1ncc(NC(=O)c2csc(-c3ccccc3)n2)cc1S(=O)(=O)Nc1c(C2CC2)cccc1C1CC1` [compound 2499] are below 10 µM and 160 to 199%.

Take `[2H]c1c([2H])c([2H])c(-c2nc(C(=O)Nc3cnc(OC)c(S(=O)(=O)Nc4c(C)cccc4C)c3)cs2)c([2H])c1[2H]` [compound 2500]: the EC50 was below 10 µM and the Emax fell in the range of 119 to 159%. In the case of `COc1ncc(NC(=O)c2csc(C)n2)cc1S(=O)(=O)Nc1c(C)cccc1C` [compound 2501], the EC50 fell in the range of 20 to 100 µM and the Emax lay in the range of 160 to 199%. As for `COc1ncc(NC(=O)c2csc(Br)n2)cc1S(=O)(=O)Nc1c(C)cccc1C` [compound 2502], the EC50 was in the range of 10 to 20 µM and the Emax was in the range of 119 to 159%. Take `COc1ncc(NC(=O)c2csc(-c3ccccc3)n2)cc1S(=O)(=O)Nc1c(C)cccc1P(C)(C)=O` [compound 2506]: the EC50 lay in the range of 20 to 100 µM and the Emax fell in the range of 200 to 300%. In the case of `COc1ncc(NC(=O)c2ncc(-c3ccccc3)o2)cc1S(=O)(=O)Nc1nc(C(F)(F)F)ccc1C` [compound 2512], the EC50 was 10 to 20 µM and the Emax fell in the range of 119 to 159%.

As for `COc1ncc(NC(=O)c2ccc3c(c2)CC(=O)N3)cc1S(=O)(=O)Nc1c(C)cccc1C` [compound 2523], the activation at 50 µM lay within 181 to 352%. `COc1ncc(NC(=O)c2c(C)noc2C)cc1S(=O)(=O)Nc1c(C)cccc1C` [compound 2524]: the activation at 50 µM fell in the range of 151 to 180%.

With `COc1ncc(NC(=O)c2cccc3c2CCC(=O)N3)cc1S(=O)(=O)Nc1c(C)cccc1C` [compound 2525], the activation at 50 µM is 151 to 180%. The same measure, in the same setting: the result for `COc1ncc(NC(=O)c2ccn3cnnc3c2)cc1S(=O)(=O)Nc1c(C)cccc1C` [compound 2526] reads 120 to 150%; that for `COc1ncc(NC(=O)c2c3c(nn2C)CCC3)cc1S(=O)(=O)Nc1c(C)cccc1C` [compound 2528], 181 to 352%. For `COc1ncc(NC(=O)c2ccc(C#N)cc2)cc1S(=O)(=O)Nc1c(C)cccc1C` [compound 2529], the activation at 50 µM was 181 to 352%.

Consider `COc1ncc(NC(=O)c2ccc(OC(F)(F)F)cc2)cc1S(=O)(=O)Nc1c(C)cccc1C` [compound 2531], for which the activation at 50 µM is 120 to 150%.

`COc1ncc(NC(=O)c2ccc(N3CCCC3=O)cc2)cc1S(=O)(=O)Nc1c(C)cccc1C` [compound 2532]: the activation at 50 µM lay in the range of 151 to 180%. On the same count and under the same terms, in the case of `COc1ncccc1C(=O)Nc1cnc(OC)c(S(=O)(=O)Nc2c(C)cccc2C)c1` [compound 2535] it was 151 to 180%; in that of `COc1ncc(NC(=O)c2cccc(C(F)(F)F)c2)cc1S(=O)(=O)Nc1c(C)cccc1C` [compound 2536], 151 to 180%. Same read-out and setting: in the case of `COc1ncc(NC(=O)c2ccc3ncnn3c2)cc1S(=O)(=O)Nc1c(C)cccc1C` [compound 2537] it was 120 to 150%; in that of `COc1ncc(NC(=O)c2cn(C(C)C)nn2)cc1S(=O)(=O)Nc1c(C)cccc1C` [compound 2538], 120 to 150%. Regarding `COc1ncc(NC(=O)c2cccn2C)cc1S(=O)(=O)Nc1c(C)cccc1C` [compound 2539], the activation at 50 µM was 181 to 352%. Regarding `COc1ncc(NC(=O)c2ccc3c(c2)nnn3C)cc1S(=O)(=O)Nc1c(C)cccc1C` [compound 2541], the activation at 50 µM fell in the range of 120 to 150%.

On to `COc1ncc(NC(=O)c2ccc(F)cc2)cc1S(=O)(=O)Nc1c(C)cccc1C` [compound 2542], for which the activation at 50 µM fell in the range of 151 to 180%. For `COc1ncc(NC(=O)c2cncc(N(C)C)n2)cc1S(=O)(=O)Nc1c(C)cccc1C` [compound 2543], the activation at 50 µM is 181 to 352%. Same read-out and setting: in the case of `COc1ncc(NC(=O)c2ccc(N3CCCCC3)nc2)cc1S(=O)(=O)Nc1c(C)cccc1C` [compound 2544] it was 181 to 352%.

In the case of `COc1cncc(C(=O)Nc2cnc(OC)c(S(=O)(=O)Nc3c(C)cccc3C)c2)c1` [compound 2545], the activation at 50 µM lay within 151 to 180%.

Consider `COc1cnccc1C(=O)Nc1cnc(OC)c(S(=O)(=O)Nc2c(C)cccc2C)c1` [compound 2546], for which the activation at 50 µM was 120 to 150%.

Regarding `CCN1CCN(Cc2ccccc2C(=O)Nc2cnc(OC)c(S(=O)(=O)Nc3c(C)cccc3C)c2)CC1` [compound 2547], the activation at 50 µM was in the range of 120 to 150%. Regarding `COc1ncc(NC(=O)c2ccccc2C)cc1S(=O)(=O)Nc1c(C)cccc1C` [compound 2548], the activation at 50 µM is 181 to 352%.

For the compound `COc1cccnc1C(=O)Nc1cnc(OC)c(S(=O)(=O)Nc2c(C)cccc2C)c1` [compound 2549], the activation at 50 µM is 120 to 150%. In the case of `COc1ncc(NC(=O)c2ccccc2C(F)(F)F)cc1S(=O)(=O)Nc1c(C)cccc1C` [compound 2550], the activation at 50 µM lay in the range of 151 to 180%. On the same count and under the same terms, the result for `COc1ncc(NC(=O)c2cn(C)nc2C(F)F)cc1S(=O)(=O)Nc1c(C)cccc1C` [compound 2551] reads 120 to 150%. Take `COc1ncc(NC(=O)c2cnn(C3CC3)c2)cc1S(=O)(=O)Nc1c(C)cccc1C` [compound 2552]: the activation at 50 µM was in the range of 151 to 180%. For the compound `COc1ncc(NC(=O)c2ccnn2C(C)C)cc1S(=O)(=O)Nc1c(C)cccc1C` [compound 2553], the activation at 50 µM was 120 to 150%. Same read-out and setting: the result for `COc1ncc(NC(=O)c2ccc(N3CCOCC3)nc2)cc1S(=O)(=O)Nc1c(C)cccc1C` [compound 2554] reads 181 to 352%. Regarding `COc1ncc(NC(=O)c2cc(C(C)C)no2)cc1S(=O)(=O)Nc1c(C)cccc1C` [compound 2555], the activation at 50 µM lay in the range of 181 to 352%. For the compound `COc1ccc(C(=O)Nc2cnc(OC)c(S(=O)(=O)Nc3c(C)cccc3C)c2)cn1` [compound 2556], the activation at 50 µM was in the range of 151 to 180%. Still for that read-out and setting: the result for `COc1ncc(NC(=O)c2cnn3c2CCC3)cc1S(=O)(=O)Nc1c(C)cccc1C` [compound 2557] reads 151 to 180%; that for `COc1ncc(NC(=O)c2nc3ccccn3n2)cc1S(=O)(=O)Nc1c(C)cccc1C` [compound 2558], 151 to 180%. For `COc1ncc(NC(=O)c2ccnn2C)cc1S(=O)(=O)Nc1c(C)cccc1C` [compound 2559], the activation at 50 µM was 120 to 150%. Still for that read-out and setting: in the case of `COc1ncc(NC(=O)c2ccc(S(=O)(=O)NC(C)(C)C)cc2)cc1S(=O)(=O)Nc1c(C)cccc1C` [compound 2561] it was 181 to 352%.

In the case of `COc1ncc(NC(=O)c2ccn(C3CC3)n2)cc1S(=O)(=O)Nc1c(C)cccc1C` [compound 2562], the activation at 50 µM lay in the range of 181 to 352%. Regarding `COc1ncc(NC(=O)c2cc(C)n(C)n2)cc1S(=O)(=O)Nc1c(C)cccc1C` [compound 2564], the activation at 50 µM lay within 120 to 150%.

In the case of `COc1ncc(NC(=O)c2ccccc2CN(C)C)cc1S(=O)(=O)Nc1c(C)cccc1C` [compound 2566], the activation at 50 µM fell in the range of 120 to 150%. Turning to `COc1ncc(NC(=O)c2ccn3ncnc3c2)cc1S(=O)(=O)Nc1c(C)cccc1C` [compound 2567], the activation at 50 µM was 120 to 150%. For the compound `COc1ncc(NC(=O)c2ccc(OC3COC3)cc2)cc1S(=O)(=O)Nc1c(C)cccc1C` [compound 2568], the activation at 50 µM fell in the range of 181 to 352%.

For `COc1ncc(NC(=O)c2cnsn2)cc1S(=O)(=O)Nc1c(C)cccc1C` [compound 2569], the activation at 50 µM lay in the range of 120 to 150%. `COc1ncc(NC(=O)c2ccc(CN3CCOCC3)cc2)cc1S(=O)(=O)Nc1c(C)cccc1C` [compound 2570]: the activation at 50 µM lay within 181 to 352%. For `COc1ncc(NC(=O)c2ncn(C)c2C)cc1S(=O)(=O)Nc1c(C)cccc1C` [compound 2571], the activation at 50 µM lay within 151 to 180%.

With `COc1ncc(NC(=O)c2cccc(CN3CCOCC3)c2)cc1S(=O)(=O)Nc1c(C)cccc1C` [compound 2572], the activation at 50 µM was 181 to 352%. Still for that read-out and setting: in the case of `COc1ncc(NC(=O)c2cc3n(n2)CCCC3)cc1S(=O)(=O)Nc1c(C)cccc1C` [compound 2573] it was 151 to 180%; in that of `COc1ncc(NC(=O)c2cccc3c2CCCC3)cc1S(=O)(=O)Nc1c(C)cccc1C` [compound 2574], 151 to 180%. In the case of `COc1cc(C(=O)Nc2cnc(OC)c(S(=O)(=O)Nc3c(C)cccc3C)c2)ccn1` [compound 2575], the activation at 50 µM is 151 to 180%. With `COc1ncc(NC(=O)c2ccc3c(c2)OCCN3C)cc1S(=O)(=O)Nc1c(C)cccc1C` [compound 2576], the activation at 50 µM fell in the range of 181 to 352%. Turning to `COc1ncc(NC(=O)c2cnn3c2OCCC3)cc1S(=O)(=O)Nc1c(C)cccc1C` [compound 2577], the activation at 50 µM lay in the range of 120 to 150%. Take `COc1ncc(NC(=O)c2ccc(N3CCN(C)CC3)cc2)cc1S(=O)(=O)Nc1c(C)cccc1C` [compound 2578]: the activation at 50 µM lay within 181 to 352%.

These data come from patent publication US20230159509A1 (Amathus Therapeutics, Inc., priority 2020, published 2023).
